# Experimental data published in patent US7691572B2, “Method and kit for detecting resistance to antiviral drugs” (priority 1998, dated 2010).
# Read-outs that look alike come from different tables or passages of the source.
# How the values were obtained:
# HIV-1 RT [1] = experiment: Amp-RT assay, AZT-TP and other NRTI-TPs, reference viruses; type: biochemical; details: for % inhibition (SEM) / inhibition of RT activity / inhibition of activity: 1 μM AZT-TP; for inhibition of RT activity: ~1.882×10^−7 to ~1.882×10^−5 units of RT activity per ml
# HIV-1 RT [2] = type: biochemical; details: for inhibition of RT activity / RT activity inhibition / Phenotype / % inhibition: 1 μM AZT-TP
# Excerpt: Four groups of archived HIV-1 specimens with known genotypes were selected for assay validation. These included WT, MNR, MNR carrying unrelated resistance mutations, and non-MNR specimens carrying classical AZT resistance mutations (Schmit et al., “Multiple drug resistance to nucleoside analogues and nonnucleoside reverse transcriptase inhibitors in an efficiently replicating human immunodeficiency virus type 1 patient strain,” J. Infect. Dis. 174: 962-968 (1996); Winters et al., “A 6-base pair insert in the reverse transcriptase gene of human immunodeficiency virus type 1 confers resistance to multiple nucleoside inhibitors,” J. Clin. Invest. 102: 1769-1775 (1998); Adje et al., “High prevalence of genotypic and phenotypic HIV-1 drug-resistant strains among patients receiving antiretroviral therapy in Abidjan, Cote d'Ivoire,” J. Acquired Immune Deficiency Syndromes 26: 501-506 (2001); Weinstock et al., “Prevalence of mutations associated with reduced antiretroviral drug susceptibility among human immunodeficiency virus type 1 seroconverters in the United States, 1993-1998,” J. Infect. Dis. 182: 330-333 (2000)). Forty-four samples were selected which comprised 7 viral stocks and 37 plasma samples obtained from 34 HIV-1-infected persons.
# [3] = MNR HIV-1SUM12 (F77L, F116Y, Q151M)
# [4] = MNR HIV-1SUM13 (A62V, V75I, F77L, F116Y, Q151M)
# [5] = specimen no. 40 (T215Y and T69S-EA insertions)
# [6] = classical AZT-resistant HIV-1 R598 (D67N, V106A, L210W, L214F, T215Y)
# [7] = classical AZT-resistant HIV-1RTMC/MT2 (D67N, K70R, T215F, K219Q)
compound,measurement,setting,value
"Nc1ccn([C@@H]2CS[C@H](COP(=O)(O)OP(=O)(O)OP(=O)(O)O)O2)c(=O)n1 [3TC-TP, 3TC-5′-triphosphate]",IC50,HIV-1 RT [1]; MNR HIV-1SUM8 (Q151M),900 nM
same,fold resistance (IC50) as compared to the mean IC values of WT HIV-1,HIV-1 RT [1]; MNR HIV-1SUM8 (Q151M),(1.8) fold
same,IC50,HIV-1 RT [1]; [3],2700 nM
same,fold resistance (IC50) as compared to the mean IC values of WT HIV-1,HIV-1 RT [1]; [3],(5.4) fold
same,IC50,HIV-1 RT [1]; [4],3300 nM
same,fold resistance (IC50) as compared to the mean IC values of WT HIV-1,HIV-1 RT [1]; [4],(6.6) fold
same,IC50,HIV-1 RT [1]; WT HIV-1SUM9,400 nM
same,IC50,HIV-1 RT [1]; WT HIV-1xxBRUpitt,600 nM
"Cc1cn([C@H]2C[C@H](N=[N+]=[N-])[C@@H](COP(=O)(O)OP(=O)(O)OP(=O)(O)O)O2)c(=O)[nH]c1=O [AZT-TP, AZT-triphosphate]",inhibition of RT activity,HIV-1 RT [2]; 9 specimens containing classical AZT-resistant mutations,87%
same,RT activity inhibition,HIV-1 RT [2]; 23 specimens with MNR genotypes,0-62%
same,RT activity inhibition,HIV-1 RT [2]; HIV-1 RTs that had more MNR-related mutations,0-16%
same,inhibition of RT activity,HIV-1 RT [2]; all 12 specimens with WT genotype,93%
same,Phenotype,HIV-1 RT [2]; specimen 12,S
same,% inhibition,"HIV-1 RT [2]; specimen 12, WT",100%
same,Phenotype,HIV-1 RT [2]; specimen 13,R
same,% inhibition,"HIV-1 RT [2]; specimen 13, S68G, Q151M",40%
same,Phenotype,HIV-1 RT [2]; specimen 14,R
same,% inhibition,"HIV-1 RT [2]; specimen 14, A62A/V, S68G, V75I, F77L, F116Y, Q151M",6%
same,Phenotype,HIV-1 RT [2]; specimen 15,R
same,% inhibition,"HIV-1 RT [2]; specimen 15, S68G, V75I, F77L, K103N, F116Y, Q151M, M184V",0%
same,Phenotype,HIV-1 RT [2]; specimen 16,R
same,% inhibition,"HIV-1 RT [2]; specimen 16, Q151Q/M",38%
same,% inhibition,"HIV-1 RT [2]; specimen 17, Q151M",23%
same,% inhibition,"HIV-1 RT [2]; specimen 18, Q151M",57%
same,Phenotype,HIV-1 RT [2]; specimen 26,R
same,% inhibition,"HIV-1 RT [2]; specimen 26, A62V, V75T, Q151M, M184I/M",11%
same,% inhibition,"HIV-1 RT [2]; specimen 27, V75I, F77L, F116Y, Q151M",0%
same,% inhibition,"HIV-1 RT [2]; specimen 28, V75I, F77L, F116Y, Q151M",8%
same,Phenotype,HIV-1 RT [2]; specimen 29,R
same,% inhibition,"HIV-1 RT [2]; specimen 29, A62V, V75I, F77L, F116Y, Q151M, M184V",0%
same,Phenotype,HIV-1 RT [2]; specimen 30,R
same,% inhibition,"HIV-1 RT [2]; specimen 30, K65R, K70R, V75I, F77L, F116Y, Q151M",13%
same,Phenotype,HIV-1 RT [2]; specimen 31,R
same,% inhibition,"HIV-1 RT [2]; specimen 31, D67N, Q151M, M184V",17%
same,Phenotype,HIV-1 RT [2]; specimen 32,R
same,% inhibition,"HIV-1 RT [2]; specimen 32, V75I, F77L, F116Y, Q151M, M184V",26%
same,Phenotype,HIV-1 RT [2]; specimen 35,R
same,% inhibition,"HIV-1 RT [2]; specimen 35, F116Y, Q151M, T215Y, V35I, I135T",62%
same,Phenotype,HIV-1 RT [2]; specimen 36,S
same,% inhibition,"HIV-1 RT [2]; specimen 36, D67N, L210W, L214F, T215Y",95.6%
same,Phenotype,HIV-1 RT [2]; specimen 37,S
same,% inhibition,"HIV-1 RT [2]; specimen 37, A62V, K70R, L74V, K103N, T215F",92.6%
same,Phenotype,HIV-1 RT [2]; specimen 38,S
same,Phenotype,HIV-1 RT [2]; specimen 39,S
same,% inhibition,"HIV-1 RT [2]; specimen 39, M41L, M184V, L214F, T215Y",89.1%
same,Phenotype,HIV-1 RT [2]; specimen 44,S
same,Phenotype,"HIV-1 RT [2]; specimens 1-11, WT",S
same,% inhibition,"HIV-1 RT [2]; specimens 1-11, recent seroconverters, WT",93-100%
same,Phenotype,"HIV-1 RT [2]; specimens 17, 18",R
same,Phenotype,HIV-1 RT [2]; specimens 19-21,R
same,% inhibition,"HIV-1 RT [2]; specimens 19-21, A62V, V75I, F77L, F116Y, Q151M",4-16%
same,Phenotype,HIV-1 RT [2]; specimens 22-25,R
same,% inhibition,"HIV-1 RT [2]; specimens 22-25, A62V, S68G, V75I, F77L, F116Y, Q151M",0%
same,Phenotype,HIV-1 RT [2]; specimens 27-28,R
same,Phenotype,"HIV-1 RT [2]; specimens 33, 34",R
same,Phenotype,HIV-1 RT [2]; specimens 40-43,S
same,% inhibition,"HIV-1 RT [2]; specimens 40-43, T215Y, T69S-insertions EA/SS/SG",87-97%
same,IC50 compared to reference WT HIV-1 isolates,"HIV-1 RT [2]; plasma specimen no. 25 (A62V, S68G, V75I, F77L, F116Y, Q151M)",44 fold
same,IC50,HIV-1 RT [2]; [5],400 nM
same,IC90,HIV-1 RT [2]; [5],1000 nM
same,% inhibition (SEM),"HIV-1 RT [1]; HIV-1LAI, WT",99.9 (±0.02) %
same,% inhibition (SEM),"HIV-1 RT [1]; HIV-1M184Vpitt, M184V",91.1 (±3.3) %
same,% inhibition (SEM),"HIV-1 RT [1]; HIV-1R598, D67N, V106A, L210W, L214F, T215Y",97.8 (±2.2) %
same,% inhibition (SEM),"HIV-1 RT [1]; HIV-1RTMC/MT-2, D67N, K70R, T215F, K219Q",91.5 (±8.5) %
same,% inhibition (SEM),"HIV-1 RT [1]; HIV-1RTMDRI/MT-2, M41L, L74V, V106A, T215Y",94.6 (±5.4) %
same,% inhibition (SEM),"HIV-1 RT [1]; HIV-1RTMF/MT-2, T215Y",96 (±4) %
same,% inhibition (SEM),"HIV-1 RT [1]; HIV-1SUM8, Q151M",26.6 (±6.1) %
same,inhibition of RT activity,HIV-1 RT [1]; HIV-1SUM8,50%
same,% inhibition (SEM),"HIV-1 RT [1]; HIV-1SUM9, WT",95.8 (±1.4) %
same,% inhibition (SEM),"HIV-1 RT [1]; HIV-1SUM12, F77L, F116V, Q151M",13.1 (±5.5) %
same,inhibition of RT activity,HIV-1 RT [1]; HIV-1SUM12 and HIV-1SUM13,< 15%
same,% inhibition (SEM),"HIV-1 RT [1]; HIV-1SUM13, A62V, V75I, F77L, F116Y, Q151M",12.9 (±2.8) %
same,% inhibition (SEM),"HIV-1 RT [1]; HIV-1xxBRUpitt, WT",93.5 (±6.5) %
same,inhibition of RT activity,HIV-1 RT [1]; WT HIV-1SUM9,> 85%
same,inhibition of activity,HIV-1 RT [1]; WT RT (HIV-1SUM9) alone,91%
same,inhibition of activity,HIV-1 RT [1]; mixture containing 10% MNR HIV-1SUM13 in WT HIV-1SUM9,17%
same,inhibition of activity,HIV-1 RT [1]; mixture containing 30% or more of MNR HIV-1,No inhibition
same,reduction of the level of DNA products,"HIV-1 RT [1]; 1 μM AZT-triphosphate, MNR strains",≤ 30%
same,reduction of the amount of DNA products,"HIV-1 RT [1]; 1 μM AZT-triphosphate, wild-type and classical reverse transcriptase mutant strains",≥ 90%
same,IC50,HIV-1 RT [1]; MNR HIV-1SUM8 (Q151M),2500 nM
same,IC90,HIV-1 RT [1]; MNR HIV-1SUM8 (Q151M),4500 nM
same,fold resistance (IC90) as compared to the mean IC values of WT HIV-1,HIV-1 RT [1]; MNR HIV-1SUM8 (Q151M),(4.7) fold
same,IC50,HIV-1 RT [1]; [3],11000 nM
same,IC90,HIV-1 RT [1]; [3],18000 nM
same,fold resistance (IC90) as compared to the mean IC values of WT HIV-1,HIV-1 RT [1]; [3],(18.6) fold
same,IC50,HIV-1 RT [1]; [4],18000 nM
same,IC90,HIV-1 RT [1]; [4],45000 nM
same,fold resistance (IC90) as compared to the mean IC values of WT HIV-1,HIV-1 RT [1]; [4],(46.6) fold
same,IC50,HIV-1 RT [1]; WT HIV-1LAI,500 nM
same,IC90,HIV-1 RT [1]; WT HIV-1LAI,900 nM
same,IC50,HIV-1 RT [1]; WT HIV-1SUM9,500 nM
same,IC90,HIV-1 RT [1]; WT HIV-1SUM9,1000 nM
same,IC50,HIV-1 RT [1]; [6],500 nM
same,IC90,HIV-1 RT [1]; [6],1000 nM
same,IC50,HIV-1 RT [1]; [7],500 nM
same,IC90,HIV-1 RT [1]; [7],1000 nM
